row,melting point [°C],Compound
1,144 to 146,CCc1nc2c(N)nc3ccccc3c2n1CCOCCN
2,184 to 186,CCOC(=O)c1ccc(NC(=O)CC2c3ccccc3Sc3ccccc32)cc1
3,174 to 175,Cc1ccccc1N1CCN(S(=O)(=O)CC23CCC(CC2=NO)C3(C)C)CC1 (configuration not stated)
4,61 to 63,CC(C)(C)c1cc(-c2cccs2)cc2c1OCC2(C)C
5,69 to 70,CC(COc1ccccc1C(=O)C(=O)c1ccccc1OCC(C)CN(C)C)CN(C)C (configuration not stated)
6,112 to 113,O=C(CCCC(=O)N1CCC(c2ccc(Cl)cc2)CC1)c1ccc2c(c1)CCNCC2
7,177 to 179,CN(c1cccc(-c2ccnc3c([N+](=O)[O-])cnn23)c1)S(=O)(=O)c1ccccc1
8,186,CCOC(=O)c1cn(CC)c2nc(N3CCN(c4ccccc4)CC3)ncc2c1=O
9,214 to 216,O=C1c2ccccc2C(=O)c2c1c(O)c1ccccc1c2O
10,196 to 201,COc1cc(NC(=O)c2cccc(CSc3nc(NC(C)=O)n[nH]3)c2)cc(OC)c1OC
11,145 to 147,Cc1cc(Nc2cncc(Nc3ccc(Cl)c(OCCN(C)C)c3)n2)n[nH]1
12,40 to 42,Nc1cc(Br)ccc1-c1ccccc1F
13,153 to 154,C=C(CC(N)=O)C(=O)O
14,116 to 118,NC(=O)Cc1ccccc1OCCn1ccnc1
15,194 to 195,CCOC(=O)/C=C/c1cn(-c2ccccc2)nc1OCc1ccc(OCc2nc(-c3ccccc3)oc2C)c(OC)c1
16,146 to 149,O=CC[C@@H](O)[C@H](O)[C@H](O)CO
17,133 to 136,COC(=O)c1ccc(Cl)cc1SCCC(=O)O
18,146 to 148,OC1COC(O)C(F)(F)C1O (configuration not stated)
19,73 to 76,O=C(c1cccnc1)c1cccc([N+](=O)[O-])c1
20,171,CSc1ccc(C=CC(=O)c2ccc(O)cc2)cc1
21,148,CCOC(=O)N1CCC(Nc2nc3cccnc3n2Cc2ccc(CO)o2)CC1
22,231 to 234,CC(C)(C)c1csc(NC(=O)c2ccn3c(=O)c(/C=C/C(=O)O)c(N4CCC(OC(=O)NCCO)CC4)nc3c2)n1
23,202 to 207,O=C(NC1CCCC1)NS(=O)(=O)c1cccc(Cl)c1Cl
24,134 to 135,CCCCCC(CC(=O)Nc1cc(C(N)=O)ccc1C(C)(C)C)c1ccc(OCCOC)cc1OC (configuration not stated)
25,104 to 106,Cc1ccnc(C2C(=O)CC(C(C)C)CC2=O)c1 (configuration not stated)

row,melting point [°C],Compound
1,136 to 138,Cc1c(C)c2c(c(C)c1NC(=O)C(C)C)CC(C)(C)O2
2,125 to 130,O=C(Cc1ccc2ccccc2c1)N1CC=C(c2cccc(C(F)(F)F)c2)CC1
3,> 225,Nc1nc(-c2ccc(CCN3CCN(c4cccc5cccnc45)CC3)cc2)cs1
4,130 to 131,CCCCc1cc2c(C)n(C)nc2c(N)n1
5,104 to 106,COc1ccc(C2=NN(C3CCN(C(=O)CCl)CC3)C(=O)[C@@H]3CC=CC[C@H]23)cc1OC
6,116 to 117,COc1ccc(C2=NN(C3CCOCC3)C(=O)[C@H]3CC=CC[C@@H]23)cc1OC1CCCC1 (relative stereo)
7,276 to 279,O=C1Nc2ccc([N+](=O)[O-])cc2Cn2nnnc21
8,223 to 225,CC(C)C(=O)N[C@@H]1CCc2c(c3cc(C#N)ccc3n2Cc2cccc(F)c2)C1
9,> 300,O=C(O)c1ccccc1C(=O)Nc1ccc2c(=O)n3c(nc2c1)C(=Cc1ccccc1)CC3
10,193 to 196,O=C1Oc2cc(O)ccc2CN1C1CCCCC1
11,240 to 241,O=C(O)c1cn(C2CC2)c2nc3cc(N4CCNC(c5ccco5)C4)c(F)cc3cc2c1=O (racemic)
12,92 to 105,COc1cc2c(cc1Nc1ncc(Cl)c(Nc3ccc(C#N)cc3OC)n1)CCN(CC(=O)N(C)C)CC2
13,48 to 50,CCc1cc2c(cc1OCc1ccccc1)CCC1C2CCC2(C)C(CCO[Si](c3ccccc3)(c3ccccc3)C(C)(C)C)CCC12 (configuration not stated)
14,90 to 92,Cc1ccc(S(=O)(=O)N[C@H](CO)CCO)cc1
15,128 to 130,N#CC1c2ccccc2CSc2ccccc21 (configuration not stated)
16,112 to 113,CCOC(=O)c1cnn(-c2c(Cl)cc(Cl)cc2Cl)c1C
17,158 to 160,Cc1ccc(Cl)c(Nc2ccccc2-c2nnc(S(C)=O)s2)c1Cl (configuration not stated)
18,185 to 188,CC(C(=O)O)c1ccc2cc(OCC(=O)O)ccc2c1 (configuration not stated)
19,> 270,Cc1c(F)c(F)cc2c1c(=O)c(C(=O)O)cn2-c1cc(N)c(F)cc1F
20,142 to 143,O=C1NCC(Cc2ccccc2C(F)(F)F)O1 (configuration not stated)
21,136,CC1(C)Cc2c(N)c(Cl)cc(C(=O)NC3CCN(CCCC4(C)OCCO4)CC3)c2O1
22,117 to 120,O=S(=O)(c1ccccc1F)n1ccc2c(OCc3ccccc3)cccc21
23,99 to 101,CC(=O)c1cc2cc(C(C)(C)C)ccc2o1
24,99 to 101,CSC(SC)=C(C#N)S(=O)(=O)c1ccccc1
25,250 to 251,O=C(/C=C/c1ccc(F)cc1)N1CCN2C(=O)OC(c3ccccc3)(c3ccccc3)C2C1 (configuration not stated)

row,melting point [°C],Compound
1,214 to 215,O=C(O)C1Cc2cc3c(-c4ccccc4)noc3c(Cl)c2O1 (configuration not stated)
2,165 to 166,CCC/C=C/S(=O)(=O)NC(=O)c1ccc2nc(C)n(Cc3ccc(N(C)C(=O)OCC)cc3Cl)c2n1
3,165 to 167,COC(=O)CCn1c(C)c(Cc2cccnc2)c2c(CCC(=O)O)cccc21
4,164 to 167,Nc1nc(=O)n(C2CC(O)C(CNC(=O)Cc3ccccc3Br)O2)cc1Br (configuration not stated)
5,84 to 85,c1csc(-c2nc(COc3ccc(CCCn4ccnc4)cc3)co2)c1
6,194 to 195,COc1cc(N2C(=O)c3ccccc3C2=O)ccc1-c1ccc(Cl)s1
7,201 to 204,O=C(NCC1(O)CCCCCC1)c1cc(-c2ncc(Cl)cc2C(=O)O)ccc1Cl
8,215 to 218,COC(=O)c1c(N)c2c(c(N)c1C#N)C(=O)c1ccccc1C2=O
9,273 to 274,Cc1c(-c2cccc(O)c2O)c(=O)oc2cc(O)ccc12
10,203 to 205,CCCCc1ccc(NS(=O)(=O)c2ccc(N3CCNC3=O)cc2)cc1
11,110 to 112,OC1C(COC2CC2)OC(n2cnc3c(NCc4cccc(I)c4)ncnc32)C1O (configuration not stated)
12,142 to 145,O=C(O)c1c(Cl)ccc(S(=O)(=O)N2CCCCC2)c1Cl
13,128 to 129,COc1cc(CC(C#N)=CN2CCOCC2)cc(OC)c1N
14,154 to 156,COc1cn(-c2ccccc2F)nc(C(C)=O)c1=O
15,47 to 52,CC(C)(C)OC(=O)CON=C(c1ccccc1)c1cc2ccncc2[nH]1
16,176 to 178,CS(=O)(=O)Nc1ccc(C(N)=O)cc1Sc1ccc(F)cc1F
17,70,CC(=O)OCC1CCc2c(C3=C(c4cn(C)c5ccccc45)C(=O)OC3=O)c3ccccc3n2CC1 (configuration not stated)
18,127 to 129,CCOC(=O)c1sc2cc(Cn3ccnc3)ccc2c1Cl
19,140 to 142,CCSc1ccc(-c2cccnc2)c2c1C(=O)CC(C)C2 (configuration not stated)
20,214 to 218,Cc1nc(-c2ccc(O)cc2)cc(-c2cccc(Br)c2)c1C#N
21,164 to 166,CCOC(=O)c1cnn(-c2cc(Cl)cc(Cl)c2)c1C(N)=O
22,145 to 147,COc1ccc(O)c(NC(=O)C(Br)c2ccccc2)c1 (configuration not stated)
23,233 to 235,CC(C)n1nc(-c2nc(C(=O)O)c(N)nc2-c2ccccc2)ccc1=O
24,271,O=C(C=Cc1ccccc1)NNC(=O)c1ccccc1O
25,92 to 93,N#Cc1c(SCCl)nsc1SCCl

row,melting point [°C],Compound
1,137,Nc1c(Cl)cc(C(=O)OCC2CCN(CCCn3nc(Cl)ccc3=O)CC2)c2c1CCO2
2,142 to 145,COc1ccc(-c2ncn(CCC(C)(C)NCC(O)c3ccc(O)c(CO)c3)n2)cc1 (configuration not stated)
3,110 to 112,NC(=O)C1N=COC1CCl (configuration not stated)
4,238 to 239,COc1ccc(C(=O)O)cc1C12CC3CC(CC(C3)C1)C2
5,218 to 219,CCCc1ccc(NC(=O)c2ccccc2C(c2ccc(O)cc2)c2ccc(O)cc2)cc1
6,178 to 181,COc1cc2c(CCNC(C)=O)cn(C(C)=O)c2cc1Cl
7,118 to 120,CCC(CC)Sc1cc(S(N)(=O)=O)c(N)cc1Cl
8,58 to 61,Cn1nnc(-c2cccc(Oc3cccc(C(F)(F)F)c3)n2)n1
9,60 to 61,Cn1ccnc1-c1ccc(/C=C/c2ccccc2F)cc1
10,104 to 110,CS(=O)(=O)c1ccc(-n2nc(CNC(=O)NC3CCCCCC3)cc2-c2ccccc2)cc1
11,68 to 71,COC(=O)c1c(/C=C/c2ccccc2)ccc2ccccc12
12,153 to 155,CN1CCN(C2=Nc3cc(Br)ccc3N3CCc4cccc2c43)CC1
13,189 to 190,Cc1ccc(-c2ccc3c(c2)C=C(C(=O)Nc2ccc(CNc4ccccn4)cc2)CCO3)cc1
14,152 to 153,COc1ccc(S(=O)(=O)N2CCc3cccc(-c4ccc(C=O)cc4)c32)cc1
15,146 to 147,CSc1ccc(COc2cccc(C(=O)Nc3ccc(C#N)cn3)c2)cc1
16,118 to 119,COc1cc(OC)nc(NC(=O)Oc2ccccc2)n1
17,96.8 to 97.3,COc1ccc(C=N[C@H]2COc3c(F)ccc(OC)c3C2)cc1
18,82 to 83,Cc1c(=O)o[n-][n+]1CCSC1CCCCC1
19,55 to 56,COc1ccc(CCCN)cc1Cl
20,218 to 219,CC(=O)NN=Cc1ccc2ccccc2n1
21,167,O=C(Nc1cccc2c1C(=O)N(CCC(=O)N1CCN(c3ccncc3)CC1)C2=O)c1ccc(Cl)s1
22,172 to 175,O=C1c2ccccc2C(=O)N1CCN1CCCC1c1cccc(O)c1 (configuration not stated)
23,142 to 144,Nc1ccccc1C(=O)/C=C/c1nccn1C(c1ccccc1)(c1ccccc1)c1ccccc1

row,Compound,melting point [°C]
1,CC(Cc1ccc(OCC(N)=O)cc1)NCC(O)c1ccccc1 (configuration not stated),158 to 162
2,COP(=S)(OC)Oc1nsc(C)c1C#N,52
3,O=C(CNC(=O)c1ccccc1)NC1CCN(CCc2c[nH]c3ccccc23)CC1,236 to 240
4,CN(C)SN(C)C(=O)ON=C1SCC(=O)NC1(C)C,165 to 167

# — a melting point compilation (Tetko et al.; mined from patent text by program, amines drawn as free bases though some values may be those of a salt)
